Results as given in ChEMBL document CHEMBL1201862, “PubChem BioAssay data set” (2004).
Activity calls are given as the source filed them.

Experiments:
[1] = biological target: RNA-editing ligase 1, mitochondrial (Trypanosoma brucei brucei, UniProt P86926); assay: inhibition of trypanosome RNA editing ligase – biochemical, fluorescence, Trypanosoma brucei, dose response (AID 1117295); format: functional
Major prion protein = Major prion protein (Homo sapiens, UniProt P04156); format: functional, cell-based
cells [2] = assay: cells
[3] = Late stage counterscreen for inhibitors of Trypanosoma brucei methionyl tRNA synthetase (MetRS): Luminescence-based cell-based high throughput dose response assay to identify compounds that are cytotoxic to Jurkat human T lymphocyte cells.; format: functional
[4] = NIH3T3 cell viability loss – ATP luminescence, mouse fibroblasts, counter-screen, dose response (AID 2010); format: functional, cell-based;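 further: cells exposed to compound for about 90 hours before reading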
cells [5] = assay: cells; remark: listed apart in the source
[6] = Trypanosoma cruzi growth suppression in host cells – NIH3T3 host cells, beta-gal luminescence, confirmation (AID 2044); format: functional, cell-based;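 further: intracellular parasites grown in NIH/3T3 mouse fibroblasts as host cells; luminescent beta-galactosidase reporter signal from transgenic T. cruzi replicating inside host cells; inhibitors lower the luminescence signal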
[7] = Luminescence Cell-Based Dose Retest to Confirm Inhibitors of Cancer Stem Cells. [Related pubchem assays (depositor defined):AID2717, AID2721]; format: functional; details: Homo sapiens
[8] = biological target: T1, Methionyl-tRNA synthetase, putative (Trypanosoma brucei brucei, UniProt Q38C91); format: functional, Trypanosoma brucei brucei strain 927/4 GUTat10.1
T1 sequence (Q38C91 whole entry): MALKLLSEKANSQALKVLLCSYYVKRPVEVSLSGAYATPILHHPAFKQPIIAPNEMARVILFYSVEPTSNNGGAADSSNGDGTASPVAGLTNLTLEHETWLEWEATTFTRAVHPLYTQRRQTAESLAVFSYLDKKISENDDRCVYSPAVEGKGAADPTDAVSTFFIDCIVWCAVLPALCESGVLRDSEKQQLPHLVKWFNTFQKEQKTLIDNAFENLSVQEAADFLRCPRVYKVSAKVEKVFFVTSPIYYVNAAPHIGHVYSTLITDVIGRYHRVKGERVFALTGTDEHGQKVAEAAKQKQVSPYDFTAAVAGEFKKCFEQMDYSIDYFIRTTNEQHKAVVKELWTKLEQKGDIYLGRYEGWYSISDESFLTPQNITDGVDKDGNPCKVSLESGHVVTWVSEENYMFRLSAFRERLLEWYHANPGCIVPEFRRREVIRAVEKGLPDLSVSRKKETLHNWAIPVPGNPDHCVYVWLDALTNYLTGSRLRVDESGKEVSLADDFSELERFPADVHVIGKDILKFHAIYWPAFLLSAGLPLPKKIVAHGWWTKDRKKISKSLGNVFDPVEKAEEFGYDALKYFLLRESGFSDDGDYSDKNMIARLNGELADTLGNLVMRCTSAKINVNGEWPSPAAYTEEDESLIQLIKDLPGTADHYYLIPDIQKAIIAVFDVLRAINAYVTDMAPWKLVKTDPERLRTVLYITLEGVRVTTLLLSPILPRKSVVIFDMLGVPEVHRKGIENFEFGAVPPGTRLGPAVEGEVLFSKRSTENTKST

[9] = biological target: T1, Methionyl-tRNA synthetase, putative; format: functional, Trypanosoma brucei brucei strain 927/4 GUTat10.1; remark: listed apart in the source
[10] = Counterscreen for inhibitors of Trypanosoma brucei methionyl tRNA synthetase (MetRS): Luminescence-based cell-based high throughput dose response assay to identify compounds that are cytotoxic to Jurkat human T lymphocyte cells.; format: functional
[11] = biological target: T2, Oxysterols receptor LXR-beta (Homo sapiens, UniProt P55055); format: functional, cell-based;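 further: agonist activity at LXR measured by a cell-based luminescence readout across a dose range, run as a counterscreen for daf-12 agonists; HEK293 cells with Gal4-LXR fusion and GAL4-driven luciferase reporter; potency for activation of Gal4-LXR reporter so compounds are agonists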
T2 sequence (P55055 whole entry): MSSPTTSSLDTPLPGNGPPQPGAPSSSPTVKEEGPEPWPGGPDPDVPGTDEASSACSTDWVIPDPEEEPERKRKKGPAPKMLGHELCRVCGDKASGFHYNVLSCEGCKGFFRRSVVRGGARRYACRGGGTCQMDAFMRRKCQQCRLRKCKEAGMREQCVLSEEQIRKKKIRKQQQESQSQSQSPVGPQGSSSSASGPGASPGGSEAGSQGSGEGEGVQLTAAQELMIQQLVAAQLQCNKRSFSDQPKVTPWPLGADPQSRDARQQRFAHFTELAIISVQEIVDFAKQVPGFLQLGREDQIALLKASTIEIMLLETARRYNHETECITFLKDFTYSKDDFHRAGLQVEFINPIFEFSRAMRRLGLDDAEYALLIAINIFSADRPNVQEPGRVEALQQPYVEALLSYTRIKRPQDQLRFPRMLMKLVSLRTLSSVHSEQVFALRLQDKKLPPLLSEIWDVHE

[12] = biological target: Endoplasmic reticulum aminopeptidase 1 (Homo sapiens, UniProt Q9NZ08); assay: inhibition of human ERAP1 enzyme activity – biochemical, cherry-pick, set 2, plate reader, dose response (AID 743314)
[13] = biological target: Solute carrier family 12 member 2/member 5 (Homo sapiens, UniProt P55011+Q9H2X9); assay: KCC2 and NKCC1 inhibition by rubidium flux, cell-based, NKCC1 counter-screen (AID 1734); format: functional, HEK293
Prothrombin = Prothrombin (Homo sapiens, UniProt P00734); assay: Thrombin 1536 HTS Dose Response Confirmation. [Related pubchem assays: 1046 (Thrombin 1536 HTS; hits were confirmed in this assay)]; format: functional
[14] = biological target: T3, Dual specificity protein phosphatase 6 (Rattus norvegicus, UniProt Q64346); assay: inhibition of rat DUSP6 enzyme activity – biochemical, in vitro, primary screen (AID 425)
T3 sequence (Q64346 whole entry): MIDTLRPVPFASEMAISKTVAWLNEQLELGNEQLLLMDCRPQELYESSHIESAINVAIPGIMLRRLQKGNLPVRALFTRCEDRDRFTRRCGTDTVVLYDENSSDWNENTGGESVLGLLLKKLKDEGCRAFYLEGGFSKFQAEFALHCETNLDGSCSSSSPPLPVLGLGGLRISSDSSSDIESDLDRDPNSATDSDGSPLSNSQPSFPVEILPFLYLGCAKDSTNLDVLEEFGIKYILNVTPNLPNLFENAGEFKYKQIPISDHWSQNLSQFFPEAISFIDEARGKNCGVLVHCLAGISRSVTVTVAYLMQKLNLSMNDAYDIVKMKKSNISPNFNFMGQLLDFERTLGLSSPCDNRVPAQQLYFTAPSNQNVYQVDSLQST

[15] = biological target: Induced myeloid leukemia cell differentiation protein Mcl-1 (Homo sapiens, UniProt Q07820); format: functional
Protein skinhead-1 = biological target: T4, Protein skinhead-1 (Caenorhabditis elegans, UniProt P34707); format: functional
T4 sequence (P34707 whole entry): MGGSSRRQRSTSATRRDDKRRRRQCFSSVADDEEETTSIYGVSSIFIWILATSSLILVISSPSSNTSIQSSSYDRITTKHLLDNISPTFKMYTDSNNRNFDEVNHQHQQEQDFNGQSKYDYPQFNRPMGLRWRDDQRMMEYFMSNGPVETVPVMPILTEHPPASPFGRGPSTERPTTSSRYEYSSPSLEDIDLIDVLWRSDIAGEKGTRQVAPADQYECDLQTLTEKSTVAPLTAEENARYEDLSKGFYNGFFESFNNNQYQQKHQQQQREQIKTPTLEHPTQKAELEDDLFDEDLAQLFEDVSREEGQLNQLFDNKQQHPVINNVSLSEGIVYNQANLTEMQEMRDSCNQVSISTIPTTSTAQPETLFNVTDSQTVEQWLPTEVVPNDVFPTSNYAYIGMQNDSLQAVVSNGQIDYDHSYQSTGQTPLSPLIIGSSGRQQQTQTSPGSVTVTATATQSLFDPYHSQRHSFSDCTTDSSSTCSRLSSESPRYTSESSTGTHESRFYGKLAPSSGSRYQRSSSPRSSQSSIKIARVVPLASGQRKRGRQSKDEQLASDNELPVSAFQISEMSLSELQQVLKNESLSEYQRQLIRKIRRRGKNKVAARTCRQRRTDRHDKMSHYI

[16] = Luminescence Cell-Based Dose Confirmation HTS to Identify Inhibitors of Platelet Dense Granule Release. [Related pubchem assays: 1663 (Primary HTS), 1678 (Summary of Project)]; format: functional
[17] = biological target: Luciferin 4-monooxygenase (Photinus pyralis, UniProt P08659); assay: inhibition of purified Photinus pyralis luciferase – biochemical, luminescence, dose response (AID 1891)

For `CCCCCCCN1C(Nc2ccccc2)=NC[C@@H]1CC(C)C`, the IC50 [1] was > 96.6 µM (inactive).
With `O=C(O)CSc1ccnc2cc(Cl)ccc12` the IC50 (Major prion protein) was 4.04 µM (active) and the IC50 (cells [2]) was > 138 µM (inactive).
With `COc1ccccc1Cn1c(=S)[nH]c2ccccc2c1=O` the IC50 (Major prion protein) was 3.49 µM (active) and the IC50 (cells [2]) was > 138 µM (inactive).
For `O=C(NCc1nc2ccccc2[nH]1)C1=C[C@H](c2ccccc2)C[C@H](OCc2ccc(CO)cc2)O1`, the IC50 [3] was > 83.3 µM (inactive).
With `CN1CCC(OC(=O)c2cccc(Cl)c2)CC1` the EC50 [4] was > 60 µM (not active), the EC50 (cells [5]) was 0.102 µM (active) and the EC50 [6] was < 0.1 µM (active). For the same compound, the AC50 [7] was 1.3 µM (active).
In the case of `COc1ccc(OCC(O)CNC(=O)Nc2ccc(Cl)cc2)cc1` (stereo not given), the IC50 [8] is reported as 4.66 µM (active), the IC50 [9] is reported as 4.39 µM (active) and the IC50 [3] is reported as > 83.3 µM (inactive). The IC50 [10] was 83.3 µM (inactive).
In the case of `Cc1ccc2c(c1)N=C(c1ccccc1)CC(C(Cl)Cl)=N2`, the EC50 [11] is reported as > 67.5 µM (inactive).
In the case of `CCN(CC)Cc1c(O)ccc2cc(-c3nc4ccccc4n3C)c(=O)oc12`, the AC50 [12] is reported as 1.8 µM (active).
In the case of `O=C(Nc1cccnc1)c1ccc(COc2ccccc2Cl)o1`, the IC50 [13] is reported as 12.1 µM (active).
With `COc1cc(CCC(=O)Nc2cccc(C(F)(F)F)c2)cc(OC)c1OC` the IC50 (Prothrombin) was > 50 µM (not active).
With `Cc1c(N=c2c(=O)c3ccccc3c2=O)c(=O)n(-c2ccccc2)n1C` the IC50 [14] was > 100 µM (not active).
In the case of `O=C(CSc1nnc(-c2ccco2)c(-c2ccco2)n1)c1ccccc1`, the IC50 [15] is reported as 3.19 µM (active) and the IC50 [1] is reported as > 96.6 µM (inactive).
With `COc1cccc(-c2noc(-c3cccs3)n2)c1` the IC50 (Protein skinhead-1) was 13.7 µM (active), the EC50 [11] was > 67.6 µM (inactive) and the EC50 [16] was > 112 µM (not active). The EC50 [17] was 7.26 µM (active).
